Numbered stars: 1 amine (or outer) side, 2 acyl side, 3 side chain; on linkers, the order of the positions; unused ones are H or OH. Square brackets hold non-standard residues; d marks the D form. Peptide text beside a SMILES is read from it. X1 = O=C([C@H](CCCCNC1CC1c1ccccc1)N[*:1])[*:2]
Legend:
[1] = biological target: T1, Amine oxidase [flavin-containing] A (Homo sapiens, UniProt P21397); test: Inhibition of human MAOA using (4S)-4,5-dihydro-2-(6-hydroxybenzothiazolyl)-4-thiazolecarboxylic acid substrate incubated for 60 mins by luciferin detection based chemiluminescence assay
T1 sequence (P21397 whole entry): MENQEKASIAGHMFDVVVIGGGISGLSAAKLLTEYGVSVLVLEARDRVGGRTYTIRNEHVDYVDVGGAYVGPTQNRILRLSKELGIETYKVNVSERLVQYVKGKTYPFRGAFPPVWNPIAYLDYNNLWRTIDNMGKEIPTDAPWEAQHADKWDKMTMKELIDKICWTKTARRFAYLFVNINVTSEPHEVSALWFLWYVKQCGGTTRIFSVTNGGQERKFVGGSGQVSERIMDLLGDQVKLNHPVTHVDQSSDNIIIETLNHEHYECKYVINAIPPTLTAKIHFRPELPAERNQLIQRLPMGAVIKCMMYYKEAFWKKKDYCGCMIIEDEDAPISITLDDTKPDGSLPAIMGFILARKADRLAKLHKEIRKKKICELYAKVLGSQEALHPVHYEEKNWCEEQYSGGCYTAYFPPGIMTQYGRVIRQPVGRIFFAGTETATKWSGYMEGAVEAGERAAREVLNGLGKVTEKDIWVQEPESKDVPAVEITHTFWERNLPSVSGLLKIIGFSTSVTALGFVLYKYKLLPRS

[2] = biological target: T2, Amine oxidase [flavin-containing] B (Homo sapiens, UniProt P27338); test: Inhibition of human MAOB using (4S)-4,5-dihydro-2-(6-hydroxybenzothiazolyl)-4-thiazolecarboxylic acid substrate incubated for 60 mins by luciferin detection based chemiluminescence assay
T2 sequence (P27338 whole entry): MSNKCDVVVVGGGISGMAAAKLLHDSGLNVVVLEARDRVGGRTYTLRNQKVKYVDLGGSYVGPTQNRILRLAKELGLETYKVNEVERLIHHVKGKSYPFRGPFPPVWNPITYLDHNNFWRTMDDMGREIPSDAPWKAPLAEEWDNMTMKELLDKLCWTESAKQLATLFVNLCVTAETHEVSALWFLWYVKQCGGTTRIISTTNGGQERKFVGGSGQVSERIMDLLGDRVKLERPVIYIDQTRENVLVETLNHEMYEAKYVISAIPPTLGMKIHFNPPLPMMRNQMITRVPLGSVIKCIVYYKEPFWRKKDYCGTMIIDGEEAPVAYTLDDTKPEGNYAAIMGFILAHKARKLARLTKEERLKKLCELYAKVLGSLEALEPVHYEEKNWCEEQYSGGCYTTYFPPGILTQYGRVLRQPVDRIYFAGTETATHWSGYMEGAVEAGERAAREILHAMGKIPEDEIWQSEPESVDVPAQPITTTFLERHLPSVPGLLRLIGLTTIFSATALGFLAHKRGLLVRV

[3] = biological target: Lysine-specific histone demethylase 1A (Homo sapiens, UniProt O60341); test: Inhibition of human recombinant LSD1 assessed as effect on H2O2 production incubated for 30 mins using methylated peptide substrate, Amplex red reagent and peroxidase by fluorimetry

Row | IC50 [1] | IC50 [2] | IC50 [3] | SMILES
1 | > 100 µM | > 100 µM | – | C[C@H](N)C(=O)N[C@@H](CCCNC(=N)N)C(=O)N[C@H](C(=O)N[C@@H](CCCCNC1CC1c1ccccc1)C(=O)N[C@@H](CCC(N)=O)C(=O)N[C@H](C(=O)N[C@@H](C)C(=O)N[C@@H](CCCNC(=N)N)C(=O)N[C@@H](CCCCN)C(=O)N[C@@H](CO)C(=O)N[C@H](C(=O)NCC(=O)NCC(=O)O)[C@@H](C)O)[C@@H](C)O)[C@@H](C)O (some centres undefined)
2 | > 100 µM | > 100 µM | – | C[C@H](N)C(=O)N[C@@H](CCCNC(=N)N)C(=O)N[C@H](C(=O)N[C@@H](CCCCNC1CC1c1ccccc1)C(=O)N[C@@H](CCC(N)=O)C(=O)N[C@H](C(=O)N[C@@H](C)C(=O)N[C@@H](CCCNC(=N)N)C(=O)N[C@@H](CCCCN)C(=O)O)[C@@H](C)O)[C@@H](C)O (some centres undefined)
3 | > 100 µM | > 100 µM | > 10 µM | C[C@H](N)C(=O)N[C@@H](CCCNC(=N)N)C(=O)N[C@H](C(=O)N[C@@H](CCCCNC1CC1c1ccccc1)C(=O)N[C@@H](CCC(N)=O)C(=O)O)[C@@H](C)O (some centres undefined) (H-ART[X1]Q-OH)
4 | > 100 µM | > 100 µM | – | C[C@H](N)C(=O)N[C@@H](CCCNC(=N)N)C(=O)N[C@H](C(=O)N[C@@H](CCCCNC1CC1c1ccccc1)C(=O)N[C@@H](CCC(N)=O)C(=O)N[C@H](C(=O)N[C@@H](C)C(=O)N[C@@H](CCCNC(=N)N)C(=O)N[C@@H](CCCCN)C(=O)N[C@@H](CO)C(=O)N[C@H](C(=O)NCC(=O)NCC(=O)N[C@@H](CCCCN)C(=O)N[C@@H](C)C(=O)N1CCC[C@H]1C(=O)N[C@@H](CCCNC(=N)N)C(=O)O)[C@@H](C)O)[C@@H](C)O)[C@@H](C)O (some centres undefined) (H-ART[X1]QTARKSTGGKAPR-OH)

— ChEMBL document CHEMBL3400031, “Histone H3 peptide based LSD1-selective inhibitors” (Bioorg Med Chem Lett, 2015)
